Experimental data from patent US9458122B2, “Process for purifying crude furan 2,5-dicarboxylic acid using hydrogenation” (Eastman Chemical Company, priority 2012, dated 2016).

Assay: solubility of FDCA in water at different temperatures
Assay type: physicochemical
Conditions: ambient pressure, as water temperature increases beyond 130° C. (FIG. 2)
Method: FIG. 2 depicts the solubility of FDCA in water at different temperatures.
Suitable dissolution temperatures are those effective to dissolve the desired amount of FDCA solids into solution. The hydrogenation solvent composition may be added at (by pre-heating) or heated in the dissolution zone to a temperature of at least 120° C. under a pressure and time sufficient to allow for at least 80 wt. % dissolution, although to reduce the time required for dissolution, it is desirable that the hydrogenation solvent composition temperature is at least 130° C., or at least 135° C., or at least 140° C., or at least 150° C.

## O=C(O)c1ccc(C(=O)O)o1 [FDCA, Furan 2,5-dicarboxylic acid]
  solubility of FDCA in water: increases dramatically
